Measurements taken from patent US4973675A, “Hybrid nitrosoureidoanthracyclines having antitumor activity” (University of Tennessee Research Center, priority 1989, dated 1990).
pIC50: −log10 of the molar value. “Also recorded” adds a separate entry of the source. Where two headings read alike, the source gives them in different places.

Tests used:
[1] = system: human CEM leukemic lymphocytes; assay: Growth inhibition of human CEM leukemic lymphocyte suspension cultures, 48 h continuous drug exposure (ID50); assay type: cell-based; conditions: for pIC50: Homo sapiens, Lymphocyte
Procedure: (§1) Culture and bioassay conditions were as described in Cancer Chemotherapy Pharmacology 20:277 (1987) "Comparative Effects of Adriamycin and DNA-nonbinding Analogues on DNA, RNA, and Protein Synthesis in Vitro", Israel et al., except that cell counts were determined by hemocytometer rather than by automated cell counting.

[2] = system: plasmid PC15 supercoiled DNA; assay: DNA unwinding assay (interference with DNA topoisomerase I-mediated unwinding; drug-DNA intercalation); assay type: biochemical; conditions: for interference with topoisomerase I-mediated conversion of supercoiled DNA / intercalation: 4 concentrations, 125-fold range; for relative strength of drug-DNA intercalation (arbitrary scale): 0 = no intercalation, 9 = very strong intercalation
Excerpt: DNA unwinding assays were used to measure the ability of a test drug to interfere with DNA topoisomerase I-mediated unwinding of plasmid PC15 supercoiled DNA. DNA topoisomerase I controls the topology of double-stranded DNA and is itself not inhibited by DNA intercalating agents. Rather, intercalating agents cause distortion of the torsional angle between adjacent DNA strand components and thereby interfere with the ability of topoisomerase I to convert supercoiled DNA into relaxed forms. Accordingly, this assay is taken as the definitive test of drug-DNA intercalation.
Drugs were tested at 4 concentrations over a 125-fold concentration range. […] These compounds are 2-chloroethylurea derivatives of daunorubicin and adriamycin, respectively (i.e. not nitrosoureas, but chemical intermediates from which the nitrosoureas were derived).

DNA topoisomerase II = assay: Drug-stimulated topoisomerase II-mediated DNA cleavage assay (end-labeled PMC41 DNA); assay type: biochemical; conditions: for enhancement of topoisomerase II-mediated DNA cleavage: 625-fold concentration range
Excerpt: FIGS. 5A and 5B are a photographic reproduction of the results of drug-stimulated topoisomerase II-mediated DNA cleavage assays performed on various compounds, including compounds of the present invention.
DNA intercalation is a necessary but not a sufficient requirement for DNA topoisomerase II-mediated DNA cleavage. Accordingly, determination of drug-induced enzyme inhibition requires direct assay with isolated topoisomerase II. These assays involve determination of drug-enhanced topoisomerase II-mediated cleavage of PMC41 DNA appropriately end-labeled with [α-^32 P]dATP. As better seen in FIG. 5B, lane B, purified topoisomerase II, under the assay conditions, causes fragmentation of the DNA (background cleavage), as indicated by the radioautographic appearance of bands of cleaved DNA having differing mass values.

[3] = system: murine L1210 leukemia cells; assay: Clonogenic assay with cultured murine L1210 leukemia cells, 1 h drug exposure (LD90); assay type: cell-based; conditions: for IC90: Mus musculus, L1210, 1 hr drug exposure, read-out: L1210 LD90 (dose killing 90% of clonogens)
Procedure: as §1
+Dose killing 90% of clonogens, 1hr. drug exposure.

murine P388 leukemia = assay: In vivo antitumor activity vs. murine P388 (P388/S) leukemia; set-up: species or system murine (B6D2F1 males); conditions: for Long-term survivors / Median increase in lifespan / Median survival / Net mean percent weight change, day 7 / Range of deaths (dying animals): ip
Excerpt: Initial studies utilized a multiple dose schedule, with drug administered once daily on days 1, 2, 3 and 4. […] The marked activity of AD 312 in this system has been confirmed in multiple separate experiments.
Additional studies were done with AD 312 vs. murine P388/S under more demanding conditions of assay.
^a Summary results of 4 separate experiments. B6D2F1 males; 1 ×

murine L1210 lymphocytes = assay: DNA alkaline elution filter assay, DNA damage in murine L1210 lymphocytes; assay type: cell-based; conditions: L1210
Excerpt: (§2) By means of the DNA alkaline elution filter assay technique, it is possible to assess the nature of damage induced in DNA by exposure to drugs and other agents. Depending on the assay conditions, DNA lesions can be quantified as direct strand breaks, DNA-DNA interstrand crosslinks, and protein-associated strand breaks and crosslinks. The action of akylating-type drugs on DNA typically results in a predominant formation of direct DNA single-strand breaks and DNA-DNA crosslinks. DNA intercalating agents show a preponderance of protein-associated DNA damage, detectable as protein-associated single-strand breaks and DNA-protein crosslinks.
(§3) The nature of nitrosoureidoanthracycline-induced DNA damage in murine L1210 and human CLL lymphocytes was assessed by means of the alkaline elution filter technique. Murine L1210 leukemic lymphocytes, like P388/S lymphocytes, are known to contain high levels of topoisomerase II.
(§4) *All concentrations 1 μM, 1hr incubation. Each entry represents the
(§5) mean of at least two experiments, frequency per 10^6 nucleotides;
(§6) statistically significant increase above background underlined. DB, direc
(§7) (nonenzymatic) DNA breaks; PAB, proteinassociated DNA cleavage; DDCL,
(§8) interstrand DNA crosslinks; DPCL, DNAprotein crosslinks.

human CLL lymphocytes = assay: DNA alkaline elution filter assay, DNA damage in human CLL lymphocytes; assay type: cell-based; conditions: for DD-CL, interstrand DNA crosslinks / DP-CL, DNA-protein crosslinks: CLL, 1 μM, 1 hr incubation
Excerpt: as §2, §3, §4, §5, §6, §7, §8
B-cell type lymphocytes freshly obtained from patients with chronic lymphocytic leukemia (CLL) show undetectable levels of topoisomerase II.

[4] = Chemical stability / autodegradation to oxazolidinone (HPLC); assay type: physicochemical; conditions: HPLC; chloroform-methanol, overnight in the cold where stated
Excerpt: FIGS. 2A and 2B are reproductions of HPLC printouts showing autodegration of N-2-chloroethylnitrosoureidoadriamycin.
Again, depending upon the specific compound, similar results were seen when compounds were exposed to aqueous media or even maintained in the dry state in a vacuum desiccator. Of importance, all daunorubicin urea and nitrosourea products, regardless of the specific alkyl or aryl substituent, afforded the same anthracycline degradation product; similarly, all adriamycin ureas and nitrosoureas afforded the same other degradation material.
Epirubicin (4'-epiadriamycin) is an example of such a starting material.

calf thymus DNA = assay: Interstrand cross-link formation in isolated calf thymus DNA, ethidium bromide fluorescence assay; assay type: biochemical; conditions: 10 mM, 4 hours at 50° C.
Procedure: To further assess the alkylation potential of AD 312, the ability of this agent to form interstrand cross-links in isolated calf thymus DNA was examined using an ethidium bromide fluorescence assay. […] In one set of experiments, DNA was exposed briefly to AD 312 (30 minutes at 50° C.) before being reisolated by precipitation with ethanol. […] Such continuing reaction reflects the presence in the DNA of long-lived precursors of crosslinks similar to what has been found for the classical antitumor chloroethylnitrosoureas. […] It appears, therefore, that AD 312 induces DNA interstrand crosslinks via an initial adduct at O^6 -guanine.

[5] = CEM, 48 hr continuous drug exposure (Table 2), read-out: ID50 (the source's name)

COc1cccc2c1C(=O)c1c(O)c3c(c(O)c1C2=O)C[C@@](O)(C(=O)CO)C[C@@H]3O[C@H]1C[C@H](NC(=O)NCCCl)[C@@H](O)[C@H](C)O1 [AD 391, 2-chloroethylureidoepirubicin]
pIC50 [1, 5]: 7.10
interference with topoisomerase I-mediated conversion of supercoiled DNA / intercalation [2]: strong intercalators
enhancement of topoisomerase II-mediated DNA cleavage (DNA topoisomerase II): do not enhance topoisomerase II-mediated cleavage

COc1cccc2c1C(=O)c1c(O)c3c(c(O)c1C2=O)C[C@@](O)(C(=O)CO)C[C@@H]3O[C@H]1C[C@H](N)[C@@H](O)[C@H](C)O1 [Epirubicin, epirubicin, reference compound]
pIC50 ([1]; suspension culture, 48 hr continuous drug exposure (Table 3), read-out: CEM, ID50 (50% growth-inhibitory concentration)): 7.52
IC90 [3]: 430 nM
relative strength of drug-DNA intercalation (arbitrary scale) [2]: 7

COc1cccc2c1C(=O)c1c(O)c3c(c(O)c1C2=O)C[C@@](O)(C(=O)CO)C[C@@H]3O[C@H]1C[C@H](NC(=O)N(CCCl)N=O)[C@H](O)[C@H](C)O1 [AD 347, 2-chloroethylnitrosoureidoadriamycin]
potency compared to adriamycin (more potent) [1]: 10 fold
growth inhibitory activity ([1]; CEM in vitro): almost identical in vitro biological properties; also recorded: moderate to marked growth inhibitory activity
pIC50 [1, 5]: 8.30
clonogenic cell kill ([3]; L1210, 1 hour exposure): essentially equipotent
IC90 [3]: 580 nM
increase in life span (murine P388 leukemia; P388/S, 16.0 mg/kg/day×4): > 500%
survival at 60 days (murine P388 leukemia; P388/S, 16.0 mg/kg/day×4): 57%
Long-term survivors (murine P388 leukemia; 2.0 mg/kg qd 1-4 (Table 7)): 0/7
Median increase in lifespan (murine P388 leukemia; 2.0 mg/kg qd 1-4 (Table 7)): +70%
Median survival (murine P388 leukemia; 2.0 mg/kg qd 1-4 (Table 7)): 17 days
Net mean percent weight change, day 7 (murine P388 leukemia; 2.0 mg/kg qd 1-4 (Table 7)): +8%
Range of deaths (dying animals) (murine P388 leukemia; 2.0 mg/kg qd 1-4 (Table 7)): 16 to 18 days
Long-term survivors (murine P388 leukemia; 4.0 mg/kg qd 1-4 (Table 7)): 0/7
Median increase in lifespan (murine P388 leukemia; 4.0 mg/kg qd 1-4 (Table 7)): +90%
Median survival (murine P388 leukemia; 4.0 mg/kg qd 1-4 (Table 7)): 19 days
Net mean percent weight change, day 7 (murine P388 leukemia; 4.0 mg/kg qd 1-4 (Table 7)): +2%
Range of deaths (dying animals) (murine P388 leukemia; 4.0 mg/kg qd 1-4 (Table 7)): 18 to 21 days
Long-term survivors (murine P388 leukemia; 8.0 mg/kg qd 1-4): 0/7
Median increase in lifespan (murine P388 leukemia; 8.0 mg/kg qd 1-4): +120%
Median survival (murine P388 leukemia; 8.0 mg/kg qd 1-4): 22 days
Net mean percent weight change, day 7 (murine P388 leukemia; 8.0 mg/kg qd 1-4): +2%
Range of deaths (dying animals) (murine P388 leukemia; 8.0 mg/kg qd 1-4): 19 to 24 days
Median increase in lifespan (murine P388 leukemia; 12.0 mg/kg qd 1-4): +160%
Median survival (murine P388 leukemia; 12.0 mg/kg qd 1-4): 26 days
Net mean percent weight change, day 7 (murine P388 leukemia; 12.0 mg/kg qd 1-4): +2%
Range of deaths (dying animals) (murine P388 leukemia; 12.0 mg/kg qd 1-4): 22 to 37 days
Long-term survivors (murine P388 leukemia; 12.0 mg/kg qd 1-4, sacrifice day 60): 2/7
Median increase in lifespan (murine P388 leukemia; 16.0 mg/kg qd 1-4): > +500%
Net mean percent weight change, day 7 (murine P388 leukemia; 16.0 mg/kg qd 1-4): -3%
Range of deaths (dying animals) (murine P388 leukemia; 16.0 mg/kg qd 1-4): 26 to 31 days
Long-term survivors (murine P388 leukemia; 16.0 mg/kg qd 1-4, sacrifice day 60): 4/7
relative strength of drug-DNA intercalation (arbitrary scale) [2]: 8
interference with topoisomerase I-mediated conversion of supercoiled DNA / intercalation [2]: the ability of these compounds to intercalate, a prerequisite for topoisomerase II inhibition, is clearly established
enhancement of topoisomerase II-mediated DNA cleavage (DNA topoisomerase II): no saturation of background cleavage
DNA topoisomerase II-inhibitory and alkylating activity (DNA topoisomerase II; summary of biochemical studies): clearly establish the DNA topoisomerase II-inhibitory activity and alkylating activity
pattern of DNA damage (murine L1210 lymphocytes): pattern of DNA damage consistent with both topoisomerase II inhibition and DNA-alkylatingaction
pattern of DNA damage (human CLL lymphocytes; CLL B-cell lymphocytes): some level of protein-associated DNA damage in these cells, but also affords significant levels of alkylation-type damage, seen as direct strand breaks and, with increasing time, DNA interstrand crosslinks
DD-CL, interstrand DNA crosslinks (human CLL lymphocytes; 0 hr after treatment): -0.18 frequency per 10^6 nucleotides
DP-CL, DNA-protein crosslinks (human CLL lymphocytes; 0 hr after treatment): 0.16 frequency per 10^6 nucleotides
DD-CL, interstrand DNA crosslinks (human CLL lymphocytes; 1 hr after treatment): -0.04 frequency per 10^6 nucleotides
DP-CL, DNA-protein crosslinks (human CLL lymphocytes; 1 hr after treatment): 0.17 frequency per 10^6 nucleotides
DP-CL, DNA-protein crosslinks (human CLL lymphocytes; 3 hr after treatment): 0.19 frequency per 10^6 nucleotides
autodegradation [4]: a second signal was clearly evident

COc1cccc2c1C(=O)c1c(O)c3c(c(O)c1C2=O)C[C@@](O)(C(=O)CO)C[C@@H]3O[C@H]1C[C@H](NC(=O)NCCCl)[C@H](O)[C@H](C)O1 [AD 346, 2-chloroethylureidoadriamycin]
pIC50 [1, 5]: 7.05
interference with topoisomerase I-mediated conversion of supercoiled DNA / intercalation [2]: reasonably strong intercalators
enhancement of topoisomerase II-mediated DNA cleavage (DNA topoisomerase II): do not enhance topoisomerase II-mediated cleavage

COc1cccc2c1C(=O)c1c(O)c3c(c(O)c1C2=O)C[C@@](O)(C(C)=O)C[C@@H]3O[C@H]1C[C@H](NC(=O)NCCCl)[C@H](O)[C@H](C)O1 [AD 307, 2-chloroethylureidodaunorubicin]
pIC50 [1, 5]: 6.52
interference with topoisomerase I-mediated conversion of supercoiled DNA / intercalation [2]: reasonably strong intercalators
interstrand crosslink formation (calf thymus DNA): appeared to produce no such effect
